Laboratory results: patent US6376497B1, “Antifungal azole derivatives having a fluorinated vinyl group and process for preparing same” (Korea Research Institute of Chemical Technology, priority 1999, dated 2002)
Values after ≈ are worked out from the molar mass of the structure shown.

Tests used:
Assay in all cases: In vitro antifungal activity, microbroth dilution MIC
Assay type in all cases: cell-based
[1] = tested on: Candida tropicalis A. 13803; conditions: 4 to 48 hours; for Minimal inhibitory concentration(MIC), C. tropicalis A. 13803: RPMI-1640, 35° C., no growth observed; for Minimal inhibitory concentration (MIC): C. tropicalis A. 13803, RPMI-1640, 35° C.
In short: (§1)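 Broth microdilution adapted from NCCLS M27, in RPMI-1640 with 0.165 M MOPS, pH 7.0. Yeast or mould inoculum at 2×10^3 CFU/ml was mixed 1:1 with DMSO-derived compound solutions (200 to 0.10 μg/ml before mixing) and incubated at 35 °C for 4 to 48 h. MIC was the concentration showing no growth.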

[2] = tested on: Aspergillus furnigatus B. 19119; conditions: for Minimal inhibitory concentration(MIC), A furnigatus B. 19119: RPMI-1640, 35° C., no growth observed; for Minimal inhibitory concentration (MIC): A furnigatus B. 19119, RPMI-1640, 35° C.
In short: as §1

[3] = tested on: Trichophyton mentagrophytes A. 9129; conditions: for Minimal inhibitory concentration(MIC), T. mentagrophytes A. 9129: RPMI-1640, 35° C., no growth observed; for Minimal inhibitory concentration (MIC): T. mentagrophytes A. 9129, RPMI-1640, 35° C.
In short: as §1

[4] = tested on: Aspergillus niger A. 16404; conditions: for Minimal inhibitory concentration(MIC), A. niger A. 16404: RPMI-1640, 35° C., no growth observed; for Minimal inhibitory concentration (MIC): A. niger A. 16404, RPMI-1640, 35° C.
In short: as §1

[5] = tested on: Cryptococcus neoformans A. 34144; conditions: for Minimal inhibitory concentration(MIC), Cry. neoformans A. 34144: RPMI-1640, 35° C., no growth observed; for Minimal inhibitory concentration (MIC): Cry. neoformans A. 34144, RPMI-1640, 35° C.
In short: as §1

[6] = tested on: Cryptococcus neoformans B. 42419; conditions: 4 to 48 hours; for Minimal inhibitory concentration(MIC), Cry. neoformans B. 42419: RPMI-1640, 35° C., no growth observed; for Minimal inhibitory concentration (MIC): Cry. neoformans B. 42419, RPMI-1640, 35° C.
In short: as §1

[7] = tested on: Candida albicans IFO. 1385; conditions: 4 to 48 hours; for Minimal inhibitory concentration(MIC), C. albicans IFO. 1385: RPMI-1640, 35° C., no growth observed; for Minimal inhibitory concentration (MIC): C. albicans IFO. 1385, RPMI-1640, 35° C.
In short: as §1

[8] = tested on: Candida pseudotropicalis K. 11658; conditions: 4 to 48 hours; for Minimal inhibitory concentration(MIC), C. pseudotropicalis K. 11658: RPMI-1640, 35° C., no growth observed; for Minimal inhibitory concentration (MIC): C. pseudotropicalis K. 11658, RPMI-1640, 35° C.
In short: as §1

[9] = tested on: Trichophyton mentagrophytes B. 32663; conditions: for Minimal inhibitory concentration(MIC), T. mentagrophytes B. 32663: RPMI-1640, 35° C., no growth observed; for Minimal inhibitory concentration (MIC): T. mentagrophytes B. 32663, RPMI-1640, 35° C.
In short: as §1

Candida krusei K. 11655 = conditions: 4 to 48 hours; for Minimal inhibitory concentration(MIC), C. krusei K. 11655: RPMI-1640, 35° C., no growth observed; for Minimal inhibitory concentration (MIC): C. krusei K. 11655, RPMI-1640, 35° C.
In short: as §1

Candida albicans C1-2 = conditions: 4 to 48 hours; for Minimal inhibitory concentration(MIC), C. albicans C1-2: RPMI-1640, 35° C., no growth observed; for Minimal inhibitory concentration (MIC): C. albicans C1-2, RPMI-1640, 35° C.
In short: as §1

[10] = tested on: Candida albicans A. 10231; conditions: 4 to 48 hours; for Minimal inhibitory concentration(MIC), C. albicans A. 10231: RPMI-1640, 35° C., no growth observed; for Minimal inhibitory concentration (MIC): C. albicans A. 10231, RPMI-1640, 35° C.
In short: as §1

[11] = tested on: Cryptococcus neoformans IFM. 40092; conditions: for Minimal inhibitory concentration(MIC), Cry. neoformans IFM. 40092: RPMI-1640, 35° C., no growth observed; for Minimal inhibitory concentration (MIC): Cry. neoformans IFM. 40092, RPMI-1640, 35° C.
In short: as §1

[12] = tested on: Candida parapsitosis A. 7330; conditions: 4 to 48 hours; for Minimal inhibitory concentration(MIC), C. parapsitosis A. 7330: RPMI-1640, 35° C., no growth observed; for Minimal inhibitory concentration (MIC): C. parapsitosis A. 7330, RPMI-1640, 35° C.
In short: as §1

[13] = tested on: Torulopsis glabrata B. 16205; conditions: 4 to 48 hours; for Minimal inhibitory concentration(MIC), T. glabrata B. 16205: RPMI-1640, 35° C., no growth observed; for Minimal inhibitory concentration (MIC): T. glabrata B. 16205, RPMI-1640, 35° C.
In short: as §1

Minimal inhibitory concentration(MIC), C. tropicalis A. 13803 [1] [µg/mL] | Minimal inhibitory concentration(MIC), Cry. neoformans B. 42419 [6] [µg/mL] | Minimal inhibitory concentration(MIC), C. albicans IFO. 1385 [7] [µg/mL] | Minimal inhibitory concentration(MIC), C. pseudotropicalis K. 11658 [8] [µg/mL] | Minimal inhibitory concentration(MIC), C. krusei K. 11655 (Candida krusei K. 11655) [µg/mL] | Minimal inhibitory concentration(MIC), C. albicans C1-2 (Candida albicans C1-2) [µg/mL] | Minimal inhibitory concentration(MIC), C. albicans A. 10231 [10] [µg/mL] | Minimal inhibitory concentration(MIC), C. parapsitosis A. 7330 [12] [µg/mL] | Minimal inhibitory concentration(MIC), T. glabrata B. 16205 [13] [µg/mL] | Minimal inhibitory concentration (MIC) [1] [µg/mL] | Minimal inhibitory concentration (MIC) ([2]; 4 to 48 hours) [µg/mL] | Minimal inhibitory concentration (MIC) ([3]; 4 to 48 hours) [µg/mL] | Minimal inhibitory concentration (MIC) ([4]; 4 to 48 hours) [µg/mL] | Minimal inhibitory concentration (MIC) ([5]; 4 to 48 hours) [µg/mL] | Minimal inhibitory concentration (MIC) [6] [µg/mL] | Minimal inhibitory concentration (MIC) [7] [µg/mL] | Minimal inhibitory concentration (MIC) [8] [µg/mL] | Minimal inhibitory concentration (MIC) ([9]; 4 to 48 hours) [µg/mL] | Minimal inhibitory concentration (MIC) (Candida krusei K. 11655) [µg/mL] | Minimal inhibitory concentration (MIC) (Candida albicans C1-2) [µg/mL] | SMILES | other results
>100 | 0.78 | 0.39 | 0.78 | 0.39 | >100 | >100 | 0.78 | 50.0 | – | – | – | – | – | – | – | – | – | – | – | FC(=C(c1ccc(F)cc1)C(F)(F)F)N1CCN(c2ccc(OCC3COC(Cn4ccnc4)(c4ccc(F)cc4F)O3)cc2)CC1 (mixture of isomers) [Ex. 148] | Minimal inhibitory concentration(MIC), A furnigatus B. 19119 [2]: 6.25 µg/mL; Minimal inhibitory concentration(MIC), T. mentagrophytes A. 9129 [3]: 3.13 µg/mL; Minimal inhibitory concentration(MIC), A. niger A. 16404 [4]: 100 µg/mL; Minimal inhibitory concentration(MIC), Cry. neoformans A. 34144 [5]: 0.78 µg/mL; Minimal inhibitory concentration(MIC), T. mentagrophytes B. 32663 [9]: ≦0.10 μg/ml; Minimal inhibitory concentration(MIC), Cry. neoformans IFM. 40092 [11]: ≦0.10 μg/ml
– | – | – | – | – | – | – | – | – | 25.0 (≈ 45.8 µM) | 50.0 (≈ 91.7 µM) | 25.0 (≈ 45.8 µM) | 100 (≈ 183 µM) | 1.56 (≈ 2.86 µM) | 1.56 (≈ 2.86 µM) | 0.78 (≈ 1.43 µM) | 100 (≈ 183 µM) | 12.5 (≈ 22.9 µM) | 100 (≈ 183 µM) | 12.5 (≈ 22.9 µM) | CCc1ccc(C(=C(F)OCC2COC(Cn3ccnc3)(c3ccc(Cl)cc3Cl)O2)C(F)(F)F)cc1 (stereo not drawn) [Ex. 22] | Minimal inhibitory concentration (MIC) [10]: 6.25 µg/mL (≈ 11.5 µM); Minimal inhibitory concentration (MIC) ([11]; 4 to 48 hours): 0.78 µg/mL (≈ 1.43 µM); Minimal inhibitory concentration (MIC) [12]: >100 µg/mL; Minimal inhibitory concentration (MIC) [13]: 25.0 µg/mL (≈ 45.8 µM)
– | – | – | – | – | – | – | – | – | 25.0 | 100 | 6.25 | >100 | 0.78 | 0.78 | 0.78 | 50.0 | 3.13 | >100 | 12.5 | CCc1ccc(C(=C(F)OCC2COC(Cn3ccnc3)(c3ccc(F)cc3F)O2)C(F)(F)F)cc1 (mixture of isomers) [Ex. 55] | Minimal inhibitory concentration (MIC) [10]: 12.5 µg/mL; Minimal inhibitory concentration (MIC) ([11]; 4 to 48 hours): ≦0.10 μg/ml; Minimal inhibitory concentration (MIC) [12]: >100 µg/mL; Minimal inhibitory concentration (MIC) [13]: 6.25 µg/mL
>100 | 3.13 | 3.13 | >100 | >100 | 50.0 | 25.0 | >100 | 50.0 | – | – | – | – | – | – | – | – | – | – | – | Cc1ccc(C(=C(F)Oc2ccc(OCC3COC(Cn4ccnc4)(c4ccc(Cl)cc4Cl)O3)cc2)C(F)(F)F)cc1 (mixture of isomers) [Ex. 94] | Minimal inhibitory concentration(MIC), A furnigatus B. 19119 ([2]; 4 to 48 hours): >100 µg/mL; Minimal inhibitory concentration(MIC), T. mentagrophytes A. 9129 ([3]; 4 to 48 hours): 25.0 µg/mL; Minimal inhibitory concentration(MIC), A. niger A. 16404 ([4]; 4 to 48 hours): >100 µg/mL; Minimal inhibitory concentration(MIC), Cry. neoformans A. 34144 ([5]; 4 to 48 hours): 3.13 µg/mL; Minimal inhibitory concentration(MIC), T. mentagrophytes B. 32663 ([9]; 4 to 48 hours): 12.5 µg/mL; Minimal inhibitory concentration(MIC), Cry. neoformans IFM. 40092 ([11]; 4 to 48 hours): 0.78 µg/mL
